The record followed here is publication PMC12557365 (Journal of Medicinal Chemistry, 2025).

Read-outs that look alike come from different tables or passages of the source.

The IC50 is the concentration at which inhibition is half-maximal. The term EC50 denotes the concentration needed to bring the measured effect to its halfway point. For orientation: clearance means the rate of elimination divided by the concentration. A higher clearance goes with a high capacity for elimination. The term half-life denotes the time needed for the level to fall by half in the phase considered. Low readings indicate rapid decline, high ones slow decline. Usually bioavailability stands for dose-corrected exposure relative to a reference, in per cent. Low readings indicate little systemic uptake, high ones much systemic uptake. The Papp A→B is how fast a substance crosses the layer from the apical side. A high value points to fast passage.

One series concerns the target SARS-CoV-2 3CL^pro (Severe acute respiratory syndrome coronavirus 2, UniProt P0DTD1). As to the kind of experiment: biochemical. Type of series: biochemical.
Series [1] in a line: in vitro. The conditions noted are these: male, rat, microsomes.
The nature of series [2]: in vitro. As to conditions: both, human, microsomes.
Series [3] deals with SARS-CoV-2 hCoV-19/Japan/TY/WK-521 strain. As to the kind of experiment: microbe, parasite or virus in culture. The class given is cell-based. The conditions noted are these: Severe acute respiratory syndrome coronavirus 2, HEK-293T, read-out: HEK 293T-AT EC50.
Series [4] in a line: in vivo. The conditions noted are these: male, beagle, dog, iv, 0.1 mg/kg.
The nature of series [5]: in vivo. The conditions noted are these: male, Sprague-Dawley, rat.
Series [6] in a line: in vitro. As to conditions: pig, LLC-PK1.
A short description of series [7]: in vivo. As to conditions: female, cynomolgus monkey, iv, 0.1 mg/kg.
Setting [8] is: read-out: SARS-CoV-2 3CL^pro IC50.

At SARS-CoV-2 3CL^pro, `Cc1cncc(-n2c(=O)nc(N3Cc4ccccc4C3)n(Cc3cc(F)c(F)c(F)c3)c2=O)c1` [Compound 1, 6-(Isoindolin-2-yl)-3-(5-methylpyridin-3-yl)-1-(3,4,5-trifluorobenzyl)-1,3,5-triazine-2,4(1H,3H)-dione] displayed an IC50 of 143 nM. The figures for the fraction remaining at 0.5 h in “in vitro [1]” and in the series “in vitro [2]” were 19% and 49%, respectively. For the same compound, in series [3], the EC50 came out at 264 nM.

`Cc1cncc(-n2c(=O)[nH]c(N3Cc4ccccc4C3)c(Cc3cc(F)c(F)c(F)c3)c2=O)c1` [Compound 2, 6-(Isoindolin-2-yl)-3-(5-methylpyridin-3-yl)-5-(3,4,5-trifluorobenzyl)-pyrimidine-2,4(1H,3H)-dione] gave an IC50 against SARS-CoV-2 3CL^pro of 335 nM. For the same compound, the fraction remaining at 0.5 h in the series “in vitro [1]” turned out to be 36%; in “in vitro [2]”, 45%. In addition, in series [3], the EC50 was found to be 1490 nM.

With `Cc1cncc(-n2c(=O)c(Cc3cc(F)c(F)c(F)c3)c(N3Cc4ccccc4C3)n(C)c2=O)c1` [Compound 3, 6-(Isoindolin-2-yl)-1-methyl-3-(5-methylpyridin-3-yl)-5-(3,4,5-trifluorobenzyl)-pyrimidine-2,4(1H,3H)-dione], half-maximal inhibition on SARS-CoV-2 3CL^pro (IC50) required 179 nM. Besides, the share remaining at 0.5 h in “in vitro [1]” and in the series “in vitro [2]” was 1% in each case. Moreover, the EC50 in series [3] turned out to be 191 nM.

Turning to `Cc1cncc(-n2c(=O)c(Cc3cc(F)c(F)c(F)c3)c(N3Cc4ccccc4C3)n(CC#N)c2=O)c1` [Compound 4, 2-(6-(Isoindolin-2-yl)-3-(5-methylpyridin-3-yl)-2,4-dioxo-5-(3,4,5-trifluorobenzyl)-3,4-dihydropyrimidin-1(2H)-yl)-acetonitrile], the IC50 on SARS-CoV-2 3CL^pro (setting [8]) amounted to 0.76 nM. The share remaining at 0.5 h was 3% in the series “in vitro [1]” and 1% in the series “in vitro [2]”. Further, the 50% effective concentration (EC50) in series [3] amounted to 4.94 nM.

On SARS-CoV-2 3CL^pro, `Cc1cncc(-n2c(=O)c(Cc3cc(F)c(F)c(F)c3)c(N3CCCC3)n(CC#N)c2=O)c1` [Compound 5, 2-(3-(5-Methylpyridin-3-yl)-2,4-dioxo-6-(pyrrolidin-1-yl)-5-(3,4,5-trifluorobenzyl)-3,4-dihydropyrimidin-1(2H)-yl)-acetonitrile] registered an IC50 of 11.8 nM. Besides, the fraction remaining at 0.5 h in “in vitro [1]” was found to be 11%; in the series “in vitro [2]”, 4%. Besides, the half-maximal effective concentration (EC50) in series [3] amounted to 20.4 nM.

The compound `Cc1cncc(-n2c(=O)c(Cc3cc(F)c(F)c(F)c3)c(N3CCC(C(F)(F)F)CC3)n(CC#N)c2=O)c1` [Compound 6, 2-(3-(5-Methylpyridin-3-yl)-2,4-dioxo-5-(3,4,5-trifluorobenzyl)-6-(4-(trifluoromethyl)-piperidin-1-yl)-3,4-dihydropyrimidin-1(2H)-yl)-acetonitrile] returned an IC50 at SARS-CoV-2 3CL^pro of 1.51 nM. The figures for the amount remaining at 0.5 h in the series “in vitro [1]” and in “in vitro [2]” were 18% and 13%, respectively. Besides, the EC50 in series [3] is 9.41 nM.

Consider `Cc1cncc(-n2c(=O)c(Cc3cc(F)c(F)c(F)c3)c(N3CC4(CCOCC4)C3)n(CC#N)c2=O)c1` [Compound 7, 2-(3-(5-Methylpyridin-3-yl)-2,4-dioxo-6-(7-oxa-2-azaspiro[3.5]-nonan-2-yl)-5-(3,4,5-trifluorobenzyl)-3,4-dihydropyrimidin-1(2H)-yl)-acetonitrile], for which inhibition against SARS-CoV-2 3CL^pro was half-maximal at 14 nM (IC50). For the same compound, the values for the fraction remaining at 0.5 h in the series “in vitro [1]” and in the series “in vitro [2]” were 77% and 58%, respectively. Further, the EC50 in series [3] was found to be 41.9 nM.

`Cc1cncc(-n2c(=O)c(Cc3cc(F)c(F)c(F)c3)c(N3CC4(C3)CC(F)(F)C4)n(CC#N)c2=O)c1` [Compound 8, 2-(6-(6,6-Difluoro-2-azaspiro[3.3]-heptan-2-yl)-3-(5-methylpyridin-3-yl)-2,4-dioxo-5-(3,4,5-trifluorobenzyl)-3,4-dihydropyrimidin-1(2H)-yl)-acetonitrile] returned an IC50 on SARS-CoV-2 3CL^pro of 5.63 nM. The amount remaining at 0.5 h in “in vitro [1]” came to 62%; in the series “in vitro [2]” it was 36%. Moreover, the EC50 in series [3] was determined as 14.4 nM.

`Cc1cncc(-n2c(=O)c(Cc3cc(F)c(F)c(F)c3)c(N3CC4(CCOC4)C3)n(CC#N)c2=O)c1` [Compound 9, 2-(3-(5-Methylpyridin-3-yl)-2,4-dioxo-6-(6-oxa-2-azaspiro[3.4]-octan-2-yl)-5-(3,4,5-trifluorobenzyl)-3,4-dihydropyrimidin-1(2H)-yl)-acetonitrile]: on SARS-CoV-2 3CL^pro, the IC50 was found to be 8.37 nM. In addition, the amount remaining at 0.5 h in the series “in vitro [1]” worked out at 81%; in the series “in vitro [2]”, 58%. The EC50 in series [3] came out at 18.4 nM.

`N#CCn1c(N2CC3(CCOC3)C2)c(Cc2cc(F)c(F)c(F)c2)c(=O)n(-c2cncc(Cl)c2)c1=O` [Compound 10, 2-(3-(5-Chloropyridin-3-yl)-2,4-dioxo-6-(6-oxa-2-azaspiro[3.4]-octan-2-yl)-5-(3,4,5-trifluorobenzyl)-3,4-dihydropyrimidin-1(2H)-yl)-acetonitrile]: the IC50 at SARS-CoV-2 3CL^pro is 8.27 nM. Besides, the share remaining at 0.5 h in “in vitro [1]” amounted to 54%; in “in vitro [2]”, 17%. Besides, the EC50 in series [3] was 25.3 nM.

In the case of `Cc1cncc(-n2c(=O)c(Cc3ccc(F)c(F)c3)c(N3CC4(CCOC4)C3)n(CC#N)c2=O)c1` [Compound 11, 2-(5-(3,4-Difluorobenzyl)-3-(5-methylpyridin-3-yl)-2,4-dioxo-6-(6-oxa-2-azaspiro[3.4]-octan-2-yl)-3,4-dihydropyrimidin-1(2H)-yl)-acetonitrile], the IC50 against SARS-CoV-2 3CL^pro turned out to be 19.6 nM. The amount remaining at 0.5 h is 71% in the series “in vitro [1]” and 55% in “in vitro [2]”. For the same compound, the EC50 in series [3] stood at 41.8 nM.

At SARS-CoV-2 3CL^pro, `Cc1cncc(-n2c(=O)c(Cc3ccccc3)c(N3CC4(CCOC4)C3)n(CC#N)c2=O)c1` [Compound 12, 2-(5-Benzyl-3-(5-methylpyridin-3-yl)-2,4-dioxo-6-(6-oxa-2-azaspiro[3.4]-octan-2-yl)-3,4-dihydropyrimidin-1(2H)-yl)-acetonitrile] registered an IC50 of 99.6 nM. In addition, the fraction remaining at 0.5 h in “in vitro [1]” and in “in vitro [2]” was 70% in each case. In addition, in series [3], the EC50 was 117 nM.

`N#CCn1c(N2CC3(CCOC3)C2)c(-c2ccccc2)c(=O)n(-c2cncc(Cl)c2)c1=O` [Compound 13, 2-(3-(5-Chloropyridin-3-yl)-2,4-dioxo-5-phenyl-6-(6-oxa-2-azaspiro[3.4]-octan-2-yl)-3,4-dihydropyrimidin-1(2H)-yl)-acetonitrile] gave an IC50 against SARS-CoV-2 3CL^pro of 7.16 nM. The amount remaining at 0.5 h amounted to 58% in the series “in vitro [1]” and 55% in “in vitro [2]”. Also, the EC50 in series [3] was 23.1 nM.

In the case of `N#CCn1c(N2CC3(CCOC3)C2)c(-c2cccc(Cl)c2)c(=O)n(-c2cncc(Cl)c2)c1=O` [Compound 14, 2-(5-(3-Chlorophenyl)-3-(5-chloropyridin-3-yl)-2,4-dioxo-6-(6-oxa-2-azaspiro[3.4]-octan-2-yl)-3,4-dihydropyrimidin-1(2H)-yl)-acetonitrile], the “improvement of activity by substituents on the S2 phenyl group” value at SARS-CoV-2 3CL^pro is given as “more than 10 -fold”. In addition, the IC50 at SARS-CoV-2 3CL^pro (setting [8]) came to 0.403 nM. For the same compound, the amount remaining at 0.5 h in the series “in vitro [1]” was 33%; in the series “in vitro [2]”, 49%. In series [3], the EC50 was 1.57 nM.

`N#CCn1c(N2CC3(CCOC3)C2)c(-c2ccc(F)c(Cl)c2)c(=O)n(-c2cncc(Cl)c2)c1=O` [Compound 15, 2-(5-(3-Chloro-4-fluorophenyl)-3-(5-chloropyridin-3-yl)-2,4-dioxo-6-(6-oxa-2-azaspiro[3.4]-octan-2-yl)-3,4-dihydropyrimidin-1(2H)-yl)-acetonitrile] had an IC50 against SARS-CoV-2 3CL^pro of 0.493 nM. For the same compound, the “improvement of activity by substituents on the S2 phenyl group” value at SARS-CoV-2 3CL^pro is reported as “more than 10 -fold”. The amount remaining at 0.5 h in the series “in vitro [1]” came out at 58%; in the series “in vitro [2]”, 55%. Moreover, the EC50 in series [3] worked out at 4.48 nM.

For the compound `N#CCn1c(N2CC(F)(F)C2)c(-c2ccc(F)c(Cl)c2)c(=O)n(-c2cncc(Cl)c2)c1=O` [Compound 16, 2-(5-(3-Chloro-4-fluorophenyl)-3-(5-chloropyridin-3-yl)-6-(3,3-difluoroazetidin-1-yl)-2,4-dioxo-3,4-dihydropyrimidin-1(2H)-yl)-acetonitrile], inhibition against SARS-CoV-2 3CL^pro was half-maximal at 2.36 nM (IC50). The fraction remaining at 0.5 h in the series “in vitro [1]” turned out to be 83%; in “in vitro [2]”, 89%. Moreover, the EC50 in series [3] was 7.79 nM.

For the compound `N#CCn1c(N2CC(O)(C(F)(F)F)C2)c(-c2ccc(F)c(Cl)c2)c(=O)n(-c2cncc(Cl)c2)c1=O` [Compound 18, 2-(5-(3-Chloro-4-fluorophenyl)-3-(5-chloropyridin-3-yl)-6-(3-hydroxy-3-(trifluoromethyl)-azetidin-1-yl)-2,4-dioxo-3,4-dihydropyrimidin-1(2H)-yl)-acetonitrile], at SARS-CoV-2 3CL^pro, the IC50 came out at 0.391 nM. Besides, the figures for the amount remaining at 0.5 h in the series “in vitro [1]” and in “in vitro [2]” were 99% and 103%, respectively. The clearance in “in vivo [4]” turned out to be 4.59 mL/min/kg; in “in vivo [5]” (iv), 6.69 mL/min/kg; in “in vivo [7]” it was 19.7 mL/min/kg. Also, the half-life in “in vivo [4]” is 8.74 h; in “in vivo [5]” (iv), 6.89 h; in the series “in vivo [7]”, 3.48 h. For the same compound, in series [3], the EC50 turned out to be 3.82 nM. The compound further had a bioavailability in “in vivo [5]” (po, 1 umol/kg) of 38%. Moreover, the Papp A→B in “in vitro [6]” was determined as 1.26 ×10⁻⁶ cm/s.
